Consider 1 substance from patent US11300570B2, “Therapeutic and diagnostic methods for cancer” (Genentech, Inc., priority 2016, dated 2022).

This test deals with locally advanced or metastatic NSCLC (PD-L1-unselected patients). Kind of test: POPLAR Phase II randomized trial, atezolizumab vs docetaxel, in 2L+ PD-L1-unselected NSCLC, efficacy by tTMB. The class given is in vivo, human. The conditions noted are these: POPLAR; for OS HR (95% CI) / PFS HR (95% CI): atezolizumab vs docetaxel. The source says:
Patients were eligible for enrollment in the POPLAR study if they had locally advanced or metastatic (e.g., stage IIIB, stage IV, or recurrent) NSCLC; disease progression during or following treatment with a prior platinum-containing regimen for locally advanced, unresectable/inoperable, or metastatic NSCLC, or disease recurrence within 6 months of treatment with a platinum-based adjuvant/neoadjuvant regimen; measurable disease, as defined by RECIST v1.1; and an ECOG performance status of 0 or 1. Participants were randomized to receive either atezolizumab at a dose of 1200 mg intravenously every three weeks or docetaxel 75 mg per meter square (mg/m^2) intravenously every three weeks. Treatment with atezolizumab could be continued as long as participants were experiencing clinical benefit, i.e., in the absence of unacceptable toxicity or symptomatic deterioration attributed to disease progression. Pre-treatment tumor samples from patients in the Phase III OAK trial (Clinical Trial ID No.: NCT02008227) were also evaluated for tTMB. Patients were eligible for enrollment in the OAK study if they had locally advanced or metastatic (e.g., stage IIIB, stage IV, or recurrent) NSCLC; disease progression during or following treatment with a prior platinum-containing regimen for locally advanced, unresectable/inoperable, or metastatic NSCLC, or disease recurrence within 6 months of treatment with a platinum-based adjuvant/neoadjuvant regimen; measurable disease, as defined by RECIST v1.1; and an ECOG performance status of 0 or 1. Participants were randomized to receive either atezolizumab at a dose of 1200 mg intravenously every three weeks or docetaxel 75 mg per square meter (mg/m^2) intravenously every three weeks. Treatment with atezolizumab could be continued as long as participants were experiencing clinical benefit, i.e., in the absence of unacceptable toxicity or symptomatic deterioration attributed to disease progression.
Data from the single-arm, PD-L1-selected trials BIRCH and FIR were combined and analyzed to examine the association between tTMB and clinical outcomes among PD-L1-selected patients. Data from the randomized, PD-L1-unselected trial, POPLAR, were analyzed separately and treatment effects between the atezolizumab- and docetaxel-treatment arms were compared.
To identify somatic mutations, tumor samples (e.g., archival tumor samples) were processed as described in Frampton et al. Nat. Biotechnol. 31:1023-31, 2013. Sequencing libraries were constructed to sequence and analyze samples. In addition to standard mutation processing, a mutation load estimation algorithm was applied that, based on the number of somatic mutations and/or rearrangements detected in Table 1 or Table 2, respectively, extrapolates to the exome or the genome as a whole. For purposes of mutation load estimation, all coding short variant alterations, base substitutions, and indels detected in the genes listed in Table 1 and Table 2 were counted. Further, all coding alterations (base substitutions and indels), including synonymous alterations, with the exception of known oncogenic driver mutations, in the genes listed in Table 1 and Table 2 were counted. However, numerous classes of detected alterations were not counted: non-coding alterations; alterations with known (occurring as known somatic alterations in the COSMIC database (Forbes et al. (2014) Nucl. Acids Res. 43:D805-11) and likely (truncations in tumor suppressor genes) functional status; known germline alterations in the dbSNP database (Sherry et al. (2001) Nucleic Acids Res. 29(1):308-11); germline alterations occurring with two or more counts in the ExAC database (Exome Aggregation Consortium (ExAC), Cambridge, Mass.); alterations that are predicted to be germline in the specimen being assessed; and alterations that are predicted to be germline in a cohort of >60,000 clinical specimens. […]

Where [1] appears, read: tTMB quantile ≥25%, unadjusted, unstratified.
[2] abbreviates: tTMB quantile ≥50% (median), unadjusted, unstratified.
Setting [3] is: tTMB quantile ≥75%, unadjusted, unstratified.

atezolizumab: the “association of tTMB with efficacy of atezolizumab compared to docetaxel” value (PD-L1-unselected 2L+ patients with NSCLC) is “trend towards an association of tTMB with improved efficacy”. Moreover, the “clinical benefit in patients with low or no PD-L1 expression on TC and IC” value (long-term follow-up (FIG. 1)) is reported as “can also derive clinical benefit”. Also, the “ORR (confirmed per RECIST v1.1) with increasing tTMB” value (per treatment arm) is “higher ORR (confirmed per RECIST v1.1) was associated with increased tTMB”. Besides, the ORR by setting is: (BEP (n = 54 atezolizumab vs 38 docetaxel)) 13%; (ITT (n = 144 atezolizumab vs 143 docetaxel)) 15% vs 15%; (tTMB quantile ≥25%) 14%; (tTMB quantile ≥50% (median)) 20%; (tTMB quantile ≥75%) 20%. For the same substance, the “OS HR (95% CI)” value is reported as 0.65 (0.38, 1.12) (BEP (n = 54 vs 38)); 0.69 (0.49, 0.98) (ITT (n = 144 vs 143)); 0.55 (0.29, 1.03) under setting [1]; 0.48 (0.23, 1.04) under setting [2]; 0.50 (0.15, 1.67) under setting [3]. For the same substance, the “PFS HR (95% CI)” value runs as follows: (BEP (n = 54 vs 38), unadjusted, unstratified) 0.98 (0.63, 1.53); (ITT (n = 144 vs 143), unadjusted, unstratified) 0.92 (0.71, 1.20); under setting [1], 0.88 (0.52, 1.48); under setting [2], 0.49 (0.25, 0.93); under setting [3], 0.49 (0.19, 1.30).
